# Values quoted from earlier work as cited in US20180289421A1, “SYSTEMS AND METHODS FOR TREATING NAIL FUNGUS” (Terimber Corporation, priority 2017, published 2018).
# Experiments:
# [1] = systemic antifungal therapy
# onychomycosis = details: oral, 12-week course
SMILES,cardiac toxicity [1],maximal clinical response rate (onychomycosis),mycologic cure rate (onychomycosis),liver toxicity [1]
CCC(C)n1ncn(-c2ccc(N3CCN(c4ccc(OCC5COC(Cn6cncn6)(c6ccc(Cl)cc6Cl)O5)cc4)CC3)cc2)c1=O (stereo not shown) [Itraconazole],may induce cardiac toxicity,,,
"CN(C/C=C/C#CC(C)(C)C)Cc1cccc2ccccc12 [terbinafine, [(2E)-6,6-dimethylhept-2-en-4-yn-1-yl](methyl)(naphthalen-1-ylmethyl)amine]",,60%-70%,71%-82%,can elevate liver enzymes and has progressed to fulminant liver failure
